Measurements as given in PMC7470104, “Discovery of 3,6-disubstituted pyridazines as a novel class of anticancer agents targeting cyclin-dependent kinase 2: synthesis, biological evaluation and in silico insights” (Journal of Enzyme Inhibition and Medicinal Chemistry, 2020).
Where two headings read alike, the source gives them in different places.

Assays:
T-47D cells [1] = assay: SRB anti-proliferative assay, T-47D; format: cell-based; conditions: Homo sapiens, T47D, 48 h, read-out: IC50 T-47D
Source text: (§1) MDA-MB-231 cell line is classified as a triple-negative/basal-like cell line, which is hormone (estrogen and progesterone)-receptor negative and HER2 negative, whereas T-47D is considered as hormone-receptor positive and HER2 negative breast cancer cell line.
(§2) 2. Anti-proliferative activities
(§3) The three examined human cancer cell lines; T-47D (breast cancer), MDA-MB-231 (breast carcinoma) and SKOV-3 (ovarian cancer), as well as the non-tumorigenic human breast cell line (MCF-10A) have been obtained from American Type Culture Collection (ATCC). The cells were maintained in Dulbecco's modified Eagle's medium (DMEM) supplemented with 10% heat inactivated fetal calf serum (GIBCO), penicillin (100 U/ml) and streptomycin (100 µg/ml) at 37 °C in humidified atmosphere containing 5% CO2. Cells at a concentration of 0.50 x 106 were grown in a 25 cm2 flask in 5 ml of culture medium.
(§4) The anti-proliferative activity of the tested pyridazines 11a-r was measured in vitro using the Sulfo-Rhodamine-B stain (SRB) assay. Briefly, Cells were inoculated in 96-well microtiter plate (5X104 cells/ well) for 24 h before treatment with the tested pyridazines to allow attachment of cell to the wall of the plate. Tested pyridazines were dissolved in DMSO at 1 mg/ml immediately before use and diluted to the appropriate volume just before addition to the cell culture. Different concentrations of tested pyridazines and staurosporine were added to the cells (three wells were prepared for each individual dose). Cells were incubated with the pyridazines for 48 h at 37°C and in atmosphere of 5% CO2. After 48 h cells were fixed, washed, and stained for 30 min with 0.4% (w/v) SRB dissolved in 1% acetic acid. Unbound dye was removed by four washes with 1% acetic acid, and attached stain was recovered with Tris-EDTA buffer. Color intensity was measured in an ELISA reader. The relation between percent of surviving fraction and drug concentration is plotted to get the survival curve for each cell line. The concentration required for 50% inhibition of cell viability (IC50) was calculated. […]

MDA-MB-231 cells [2] = assay: SRB anti-proliferative assay, MDA-MB-231; format: cell-based; conditions: Homo sapiens, read-out: IC50 MDA-MB-231
Source text: as §1, §2, §3, §4

CDK2/CyclinA2 = CDK2/CyclinA2 (Homo sapiens, UniProt P24941); assay: In vitro CDK2 kinase assay (CDK2/CyclinA2 Kinase Enzyme System)
Source text: CDK Kinase Inhibitory Activity

MCF-10A cells = assay: MTT cytotoxicity towards non-tumorigenic breast cells; format: cell-based, human; conditions: for IC50: read-out: IC50 MCF-10A
T-47D cells [3] = assay: Cell cycle analysis by flow cytometry, T-47D; format: cell-based, human; conditions: treated at IC50, 24 h, vs untreated control
Source text: (§5) In this study, the efficient anti-proliferative activities of target pyridazines 11a-r towards breast cancer cell lines promoted us to explore and get insights into the plausible cellular mechanisms for these small molecules. To this end, we decided to determine if the target pyridazines exerted their cytotoxic activity through alteration in cell cycle progression and/or induction of apoptosis in both breast cancer T-47D and MDA-MB-231 cells. As a reliable tool, the flow cytometric analysis was utilised to inspect the cell cycle distribution after treatment of T-47D and MDA-MB-231 cells with IC50s of pyridazines 11l and 11m; […]
as §2
as §3, with “medium. […]” for “medium.”
Tested pyridazines were dissolved in […]
The relation between percent of surviving fraction and drug concentration is plotted to get the survival curve for each cell line. The concentration required for 50% inhibition of cell viability (IC50) was calculated.
Breast cancer T-47D and MDA-MB-231 cells were treated with pyridazines 11l and 11m for 24 h (at their IC50 concentration), and then cells were washed twice with ice-cold phosphate buffered saline (PBS). Subsequently, the treated cells were collected by centrifugation, fixed in ice-cold 70% (v/v) ethanol, washed with PBS, re-suspended with 100 μg/mL RNase, stained with 40 μg/mL PI, and analyzed by flow cytometry using FACS Calibur (Becton Dickinson, BD, Franklin Lakes, NJ, USA). The cell cycle distributions were calculated using CellQuest software 5.1 (Becton Dickinson).

MDA-MB-231 cells [4] = assay: Cell cycle analysis by flow cytometry, MDA-MB-231; format: cell-based, human; conditions: MDA-MB-231, treated at IC50, 24 h, vs untreated control
Source text: as §5, §2, §3
The anti-proliferative activity of the tested pyridazines 11a-r was measured in vitro using the Sulfo-Rhodamine-B stain (SRB) assay. Briefly, Cells were inoculated in 96-well microtiter plate (5X104 cells/ well) for 24 h before treatment with the tested pyridazines to allow attachment of cell to the wall of the plate. Tested pyridazines were dissolved in DMSO at 1 mg/ml immediately before use and diluted to the appropriate volume just before addition to the cell culture. Different concentrations of tested pyridazines and staurosporine were added to the cells (three wells were prepared for each individual dose). Cells were incubated with the pyridazines for 48 h at 37°C and in atmosphere of 5% CO2. After 48 h cells were fixed, washed, and stained for 30 min with 0.4% (w/v) SRB dissolved in 1% acetic acid. Unbound dye was removed by four washes with 1% acetic acid, and attached stain was recovered with Tris-EDTA buffer. Color intensity was measured in an ELISA reader. The relation between percent of surviving fraction and drug concentration is plotted to get the survival curve for each cell line. The concentration required for 50% inhibition of cell viability (IC50) was calculated.
Breast cancer T-47D and MDA-MB-231 cells were treated with pyridazines 11l and 11m for 24 h (at their IC50 concentration), and then cells were washed twice with ice-cold phosphate buffered saline (PBS). […]

T-47D cells [5] = assay: Annexin V-FITC/PI apoptosis assay, T-47D; format: cell-based, human; conditions: treated at IC50, 48 h; for Annexin V+ cells, late apoptotic phase (upper right quadrant): control 0.19%; for Annexin V+ cells, early apoptotic phase (lower right quadrant): control […]
Procedure: (§6) Both T-47D and MDA-MB-231 cells were treated with pyridazines 11l and 11m at their IC50s for 48 h. The obtained results have been depicted in Figures 4–6.
(§7) 4. Annexin V-FITC Apoptosis Assay
(§8) Phosphatidylserine externalization was assayed using Annexin V-FITC/PI apoptosis detection kit (BD Biosciences, USA) according to the manufacturer’s instructions. Breast cancer T-47D and MDA-MB-231 cells were cultured to a monolayer then treated with pyridazines 11l and 11m at their IC50 concentration. Briefly, cells were then harvested via trypsinization, and rinsed twice in PBS followed by binding buffer. Moreover, cells were re-suspended in 100 μL of binding buffer with the addition of 1 μL of FITC-Annexin V followed by an incubation period of 30 min at 4 °C. Cells were then rinsed in binding buffer and resuspended in 150 μL of binding buffer with the addition of 1 μL of DAPI (1 μg/μL in PBS). Cells were then analyzed using the flow cytometer BD FACS Canto II and the results were interpreted with FlowJo7.6.4 software (Tree Star, Ashland, OR, USA). […]
(§9) Data are presented as means ± S.D. Individual groups were compared using the two-tailed independent Student’s t-test. Multiple group comparisons were carried out using one-way analysis of variance (ANOVA) followed by the Tukey–Kramer test for post-hoc analysis. Statistical significance was accepted at a level of p < 0.05. All statistical analyses were performed using GraphPad InStat software, version 3.05 (GraphPad Software, Inc., La Jolla, CA, USA). Graphs were sketched using GraphPad Prism software, version 5.00 (GraphPad Software, Inc., La Jolla, CA, USA).

MDA-MB-231 cells [6] = assay: Annexin V-FITC/PI apoptosis assay, MDA-MB-231; format: cell-based, human; conditions: MDA-MB-231, treated at IC50, 48 h; for Annexin V+ cells, late apoptotic phase (upper right quadrant): control 0.24%; for Annexin V+ cells, early apoptotic phase (lower right quadrant): control 0.56%
Procedure: as §6, §7, §8, §9

[7] = test system: human colon cancer HT-29 cell line; parameters: method as in PMID 23307426; conditions: in words; cited from earlier work
VEGFR-2 = test system: VEGFR-2; parameters: method as in PMID 31852269; conditions: in words; cited from earlier work
[8] = SRB assay, breast cancer T-47D, mean ± SD of three experiments
[9] = SRB assay, 48 h, breast cancer MDA-MB-231, mean ± SD of three experiments

## CCCCNc1nnc(C(=O)NC2C3CC4CC(C3)CC2C4)cc1C(F)(F)F (stereo not shown) [11b]
T-47D cells [1]; [8]
  IC50: 1370 ± 40 nM
other
  melting point: 110 to 111 °C

## O=C(NC1C2CC3CC(C2)CC1C3)c1cc(C(F)(F)F)c(N2CCOCC2)nn1 (stereo not shown) [11d]
MDA-MB-231 cells [2]; [9]
  IC50: 2180 ± 70 nM
other
  melting point: 177 to 178 °C

## O=C(NC1C2CC3CC(C2)CC1C3)c1cc(C(F)(F)F)c(NCc2ccccc2C(F)(F)F)nn1 (stereo not shown) [11e]
T-47D cells [1]; [8]
  IC50: 2620 ± 80 nM
CDK2/CyclinA2
  IC50: 151 ± 6.16 nM

## CC(C)(C)NC(=O)c1cc(C(F)(F)F)c(NC2CCCC2)nn1 [11f]
T-47D cells [1]; [8]
  IC50: 1940 ± 60 nM
other
  melting point: 62 to 63 °C

## CC(C)(C)NC(=O)c1cc(C(F)(F)F)c(N2CCOCC2)nn1 [11g]
other
  melting point: 121 to 122 °C

## CC(C)(C)NC(=O)c1cc(C(F)(F)F)c(NCc2ccccc2C(F)(F)F)nn1 [11h]
T-47D cells [1]; [8]
  IC50: 1600 ± 50 nM
MDA-MB-231 cells [2]; [9]
  IC50: 2440 ± 80 nM
other
  melting point: 132 to 133 °C
CDK2/CyclinA2
  IC50: 43.8 ± 1.79 nM

## CCCCNC(=O)c1cc(C(F)(F)F)c(N2CCOCC2)nn1 [11i]
T-47D cells [1]; [8]
  IC50: 440 ± 10 nM

## O=C(NCC1CCOCC1)c1cc(C(F)(F)F)c(NCC2CC2)nn1 [11l]
T-47D cells [1]; [8]
  IC50: 1570 ± 50 nM
MDA-MB-231 cells [2]; [9]
  IC50: 1300 ± 40 nM
MCF-10A cells; IC50 for MCF-10A / IC50 average for (T-47D and MDA-MB-231)
  Mean tumour selectivity index (S. I.): 13.7
MCF-10A cells; MTT assay, non-tumorigenic human breast MCF-10A cells
  IC50: 19600 ± 380 nM
T-47D cells [3]
  Increase in sub-G1 phase: 13.8 fold
  Rise in cell population of G2/M phase: 2.7 fold
MDA-MB-231 cells [4]
  Increase in cell population of G2/M phase: 4.1 fold
  Increase in sub-G1 phase: 18.9 fold
T-47D cells [5]
  Increase in Annexin V+ apoptotic cells (UR + LR) with respect to untreated control: about 33 fold
  Annexin V+ cells, late apoptotic phase (upper right quadrant): 27.2%
  Annexin V+ cells, early apoptotic phase (lower right quadrant): 6.39%
MDA-MB-231 cells [6]
  Annexin V+ cells, late apoptotic phase (upper right quadrant): 23.60%
  Annexin V+ cells, early apoptotic phase (lower right quadrant): 3.38%
CDK2/CyclinA2
  IC50: 55.6 ± 2.27 nM

## O=C(NCC1CCOCC1)c1cc(C(F)(F)F)c(N2CCOCC2)nn1 [11m]
T-47D cells [1]
  IC50: 430 ± 10 nM
MDA-MB-231 cells [2]; MDA-MB-231, 48 h
  IC50: 990 ± 30 nM
MCF-10A cells; Homo sapiens, MCF-10A
  IC50: 11400 ± 220 nM
T-47D cells [3]
  Increase in sub-G1 phase: 9.5 fold
  Rise in cell population of G2/M phase: 2.5 fold
MDA-MB-231 cells [4]
  Increase in cell population of G2/M phase: 3.8 fold
  Increase in sub-G1 phase: 15.2 fold
T-47D cells [5]
  Increase in Annexin V+ apoptotic cells (UR + LR) with respect to untreated control: ~21 fold
  Annexin V+ cells, late apoptotic phase (upper right quadrant): 10.34%
  Annexin V+ cells, early apoptotic phase (lower right quadrant): 11.36%
MDA-MB-231 cells [6]
  Annexin V+ cells, late apoptotic phase (upper right quadrant): 15.56%
  Annexin V+ cells, early apoptotic phase (lower right quadrant): 8.19%

## O=C(NCc1ccccc1C(F)(F)F)c1cc(C(F)(F)F)c(NCCO)nn1 [11n]
MDA-MB-231 cells [2]; [9]
  IC50: 2940 ± 90 nM

## CCOC(=O)c1ccc(-c2ccc(N(C)C)nn2)cc1 [III]
[7]
  Cytotoxic activity towards HT-29: excellent cytotoxic activity

## COc1ccc(Nc2ccc(NC(=O)Nc3ccc(Cl)c(C(F)(F)F)c3)cc2)nn1 [IV]
VEGFR-2
  IC50 VEGFR-2: nanomolar range
